Results as given in US20110039762A1, “TARGETED ANTIMICROBIAL MOIETIES” (C3 JIAN, INC., priority 2009, published 2011).
“Also recorded” adds a separate entry of the source.

How the values were obtained:
S. pneumoniae = experiment: Kill or inhibit growth/proliferation; morphology, biofilm and growth disruption (Tables 5, 6); format: cell-based, Streptococcus pneumoniae; set-up: key: A: Peptide aggregates; B: Less hyphal formation; Clumps; Diffuse clumps and small polyps; F: Diffuse growth; H: Thin; I: Growth inhibition; Microcolony formation; Rippled; Small polyps; Thick; W: Halo formation on top, microlonies on bottom; note: test concentration or dose not given here
microorganisms = experiment: Peptides having multiple activities (targeting/binding, antimicrobial, growth or phenotype altering)
Source text: In certain embodiments, peptides described herein can have multiple activities. Thus for example, a peptide can have both binding/targeting activity and antimicrobial activity. Such peptides can be used, e.g., in a chimeric construct, for any or all of these properties. Thus, for example, a peptide designated “B” in Table 8 can be used as a targeting peptide. If it is also designated G or M it can also be used for antimicrobial activity.

[1] = test system: microorganisms (e.g., bacteria, yeasts, fungi); experiment: Targeting peptide binding to target microorganisms (Table 3); conditions: preferably 1x PBS
B. subtilis = experiment: Kill or inhibit growth/proliferation; morphology, biofilm and growth disruption (Tables 5, 6); format: cell-based, Bacillus subtilis; set-up: key: A: Peptide aggregates; B: Less hyphal formation; Clumps; Diffuse clumps and small polyps; F: Diffuse growth; H: Thin; I: Growth inhibition; Microcolony formation; Rippled; Small polyps; Thick; W: Halo formation on top, microlonies on bottom; note: test concentration or dose not given here
M. luteus = experiment: as above; format: cell-based, Micrococcus luteus; set-up: key: A: Peptide aggregates; B: Less hyphal formation; Clumps; Diffuse clumps and small polyps; F: Diffuse growth; H: Thin; I: Growth inhibition; Microcolony formation; Rippled; Small polyps; Thick; W: Halo formation on top, microlonies on bottom
C. jeikeium = experiment: as above; format: cell-based, Corynebacterium jeikeium; set-up: key: A: Peptide aggregates; B: Less hyphal formation; Clumps; Diffuse clumps and small polyps; F: Diffuse growth; H: Thin; I: Growth inhibition; Microcolony formation; Rippled; Small polyps; Thick; W: Halo formation on top, microlonies on bottom
S. epidermidis = experiment: as above; format: cell-based, Staphylococcus epidermidis; set-up: key: A: Peptide aggregates; B: Less hyphal formation; Clumps; Diffuse clumps and small polyps; F: Diffuse growth; H: Thin; I: Growth inhibition; Microcolony formation; Rippled; Small polyps; Thick; W: Halo formation on top, microlonies on bottom
MRSA = experiment: as above; format: cell-based, Methicillin-resistant Staphylococcus aureus; set-up: key: A: Peptide aggregates; B: Less hyphal formation; Clumps; Diffuse clumps and small polyps; F: Diffuse growth; H: Thin; I: Growth inhibition; Microcolony formation; Rippled; Small polyps; Thick; W: Halo formation on top, microlonies on bottom; note: test concentration or dose not given here
C. jejuni = experiment: as above; format: cell-based, Campylobacter jejuni; set-up: key: A: Peptide aggregates; B: Less hyphal formation; Clumps; Diffuse clumps and small polyps; F: Diffuse growth; H: Thin; I: Growth inhibition; Microcolony formation; Rippled; Small polyps; Thick; W: Halo formation on top, microlonies on bottom; note: test concentration or dose not given here
[2] = microorganism the targeting peptide binds, binding in aqueous buffers varied by peptide solubility
[3] = microorganism(s) the targeting peptide binds, peptide binding conducted in aqueous buffers varied by peptide solubility
Throughout, for Organism, effect: test concentration or dose not given here.

Substance	Activities (microorganisms)	Target(s) [1, 2]	Organism, effect (B. subtilis)	Organism, effect (M. luteus)	Organism, effect (C. jeikeium)	Organism, effect (MRSA)	Target(s) [1, 3]	other results
PF-002: peptide having multiple activities (chain 1 NDDAQ; chain 2 NDDAQ; Peptide with targeting and/or antimicrobial activity)	G B	S. epidermidis; also recorded: P. mirabilis; also recorded: C. albicans; also recorded: C. jeikeium; also recorded: C. jejuni	B. subtilis (R)					Organism, effect (S. pneumoniae): S. pneumoniae (H)
PF-021: peptide having multiple activities (chain 1 FSLNFSKQKYVTVN; chain 2 FSLNFSKQKYVTVN; Peptide with targeting and/or antimicrobial activity)	G B	S. epidermidis; also recorded: M. luteus; also recorded: P. mirabilis; also recorded: E. coli; also recorded: C. albicans; also recorded: E. faecalis; also recorded: C. jeikeium		M. luteus (A)	C. jeikeium (R)	MRSA (R)		Organism, effect (S. epidermidis): S. epidermidis (A)
PF-025: peptide having multiple activities (chain 1 LLIIFRLWLELKWKNKK; chain 2 LLIIFRLWLELKWKNKK; Peptide with targeting and/or antimicrobial activity)	G B	S. epidermidis and M. luteus and P. mirabilis and E. coli and P. aeruginosa and MRSA and E. faecalis and C. jejuni		M. luteus (A)	C. jeikeium (A)	MRSA (R)		Organism, effect (S. epidermidis): S. epidermidis (S)
PF-036: peptide having multiple activities (chain 1 ILNRLSRIVSNEVTSLIYSLK; chain 2 ILNRLSRIVSNEVTSLIYSLK; Peptide with targeting and/or antimicrobial activity)	G B	S. epidermidis and M. luteus and P. mirabilis and E. coli and C. albicans and MRSA and S. pneumoniae and C. jejuni		M. luteus (A)	C. jeikeium (A)	MRSA (R)		Organism, effect (S. epidermidis): S. epidermidis (S)
PF-043: peptide having multiple activities (chain 1 MIKNETAYQMNELLVIRSAYAK; chain 2 MIKNETAYQMNELLVIRSAYAK; Peptide with targeting and/or antimicrobial activity)	G B	M. luteus; also recorded: C. jejuni		M. luteus (C)	C. jeikeium (A)	MRSA (R)		Organism, effect (S. epidermidis): S. epidermidis (D)
PF-052: peptide having multiple activities (chain 1 QELINEAVNLLVKSK; chain 2 QELINEAVNLLVKSK; Peptide with targeting and/or antimicrobial activity)	G B	S. epidermidis and M. luteus and E. coli and MRSA and E. faecalis and C. jeikeium and C. jejuni		M. luteus (A)	C. jeikeium (D)	MRSA (R)		Organism, effect (S. epidermidis): S. epidermidis (S)
PF-070: peptide having multiple activities (SMVKSEIVDLLNGEDNDD; Peptide with targeting and/or antimicrobial activity)	G B	S. epidermidis; also recorded: C. jejuni	B. subtilis (D)					
PF-303 (EYPWSWISEPWPWDKSFYK; Peptide with targeting and/or antimicrobial activity)			B. subtilis (C)					
PF-306: peptide having multiple activities (GCILPHKKDNYNYIMSKFQDLVKITSKK; Peptide with targeting and/or antimicrobial activity)	G B		B. subtilis (C)					Target(s) ([1]; microorganism(s) the targeting peptide binds, binding in aqueous buffers depending on peptide solubility): C. difficile
PF-550: peptide having multiple activities (chain 1 STENGWQEFESYADVGVDPRRYVPL; chain 2 STENGWQEFESYADVGVDPRRYVPL; Peptide with targeting and/or antimicrobial activity)	G B		B. subtilis (D)				S. pneumoniae	
PF-552: peptide having multiple activities (chain 1 ELDKADAALGPAKNLAPLDVINRS; chain 2 ELDKADAALGPAKNLAPLDVINRS; Peptide with targeting and/or antimicrobial activity)	G B		B. subtilis (D)				S. pneumoniae	
PF-554: peptide having multiple activities (chain 1 AKNFLTRTAEEIGEQAVREGNINGP; chain 2 AKNFLTRTAEEIGEQAVREGNINGP; Peptide with targeting and/or antimicrobial activity)	G B		B. subtilis (D)				S. pneumoniae	
PF-557: peptide having multiple activities (chain 1 AANKAREQAAAEAKRKAEEQAR; chain 2 AANKAREQAAAEAKRKAEEQAR; Peptide with targeting and/or antimicrobial activity)	G B		B. subtilis (D)				S. pneumoniae	
PF-567: peptide having multiple activities (chain 1 QQRVKAVDASLSQVSTQVSGAVASA; chain 2 QQRVKAVDASLSQVSTQVSGAVASA; Peptide with targeting and/or antimicrobial activity)	G B			M. luteus (C)	C. jeikeium (C)	MRSA (D)	S. epidermidis and P. aeruginosa and C. albicans and MRSA and S. pneumoniae and C. jeikeium	Organism, effect (S. pneumoniae): S. pneumoniae (D); Organism, effect (C. jejuni): C. jejuni (D)
PF-569: peptide having multiple activities (chain 1 KSKISEYTEKEFLEFVEDIYTNNK; chain 2 KSKISEYTEKEFLEFVEDIYTNNK; Peptide with targeting and/or antimicrobial activity)	G B		B. subtilis (D)				M. luteus; also recorded: P. mirabilis; also recorded: S. pneumoniae; also recorded: E. faecalis; also recorded: C. jeikeium	
PF-571 (SDLLYYPNENREDSPAGVVKEVKE; Peptide with targeting and/or antimicrobial activity)			B. subtilis (D)					
PF-574 (LVKSGKLESPYEHSEHLTLSQEKGLE; Peptide with targeting and/or antimicrobial activity)			B. subtilis (D)					
PF-670 (chain 1 TVIVAPMHSGV; chain 2 TVIVAPMHSGV; Peptide with targeting and/or antimicrobial activity)								Organism, effect (morphology, biofilm and growth disruption) (S. pneumoniae): S. pneumoniae (H); Organism, effect (morphology, biofilm and growth disruption) (B. subtilis): B. subtilis (H)
